The values that follow come from US4277492A, “Novel 4-bis((Phenylmethyl)amino)-benzenesulfonic acids possessing antiviral activity” (priority 1980, dated 1981).

The structures appear in SMILES notation. In brackets after ≈: the same amount, converted by molar mass. Where only a bound is given, the exact number is not on record here.

The nature of series [1]: Cytotoxicity in tissue culture (monolayered HeLa cells). It counts as cell-based. The settings on record: human, observed at 48 and 72 hours post-treatment, read-out: Cytotoxicity (concentration of compound found to be toxic to the cell). As for the experimental part:
(§1) Monolayered HeLa cells in 16 millimeter (mm) tissue culture dishes were treated with 1 ml of culture medium (Eagles medium supplemented with fetal calf serum) containing compound at 100, 50, 25, 12.5, 6.25 or 0 μg/ml. Culture mediums such as those described herein are more fully described in standard tests, as for example, Kuchler's Biochemical Methods in Cell Culture and Virology, Dowden, Hutchinson and Ross, Inc., Stroudsberg, PA (1977). Immediately following treatment, cells were challenged with 0.05 ml of rhinovirus type 1A (RV-1A), rhinovirus type 2 (RV-2) or coxsackie A21 virus (Cox A21) in culture medium. Cell controls received no virus.
*Cytotoxicity figures represent the concentration of compound (μg/ml)
found to be toxic to the cell.

For series [2], the system named is rhinovirus type 1A (RV-1A). Put plainly: Tissue culture antiviral testing, RV-1A (viral cytopathic effect in HeLa cells). The class given is cell-based. The settings on record: Enterovirus, 48 and 72 hours post-treatment, read-out: Lowest concentration of compound necessary to cause a 50 percent reduction in cytopathic effect, RV-1A. As for the experimental part: as §1
(§2) **Lowest concentration of compound (μg/ml) necessary to cause a 50
(§3) percent reduction in cytopathic effect.
In general terms: Protection from cytopathic effect is a common read-out in antiviral testing.

The test system of series [3] is rhinovirus type 2 (RV-2). Put plainly: Tissue culture antiviral testing, RV-2 (viral cytopathic effect in HeLa cells). It counts as cell-based. The following applies: Enterovirus, 48 and 72 hours post-treatment, read-out: Lowest concentration of compound necessary to cause a 50 percent reduction in cytopathic effect, RV-2. As for the experimental part:
as §1, §2, §3

Series [4] has as its system coxsackie A21 virus (Cox A21). In words: Tissue culture antiviral testing, Cox A21 (viral cytopathic effect in HeLa cells). The class given is cell-based. The settings on record: 48 and 72 hours post-treatment, read-out: Lowest concentration of compound necessary to cause a 50 percent reduction in cytopathic effect, Cox A21. Here is the method: as §1, §2, §3
Series [5] deals with Cox A21 virus. In words: Animal testing, mice challenged intraperitoneally with a normally lethal dose of Cox A21 virus. The class given is in vivo, Swiss male mice. The following applies: 600 mg/kg PO; at the 95 percent confidence level. Here is the method:
The subject compounds were also tested in animals as follows:
Swiss male mice, 10-12 g in weight, were challenged intraperitoneally (IP) with 0.2 ml of a normally lethal dose, i.e., a virus dose sufficient to cause .congruent.80-100 percent mortality in infected animals within 10 days of challenge, of Cox A21 virus in phosphate buffered saline containing 1 percent heat inactivated fetal calf serum. Three hours later, mice were treated orally (PO) with 0.2 ml of compound suspended in 0.5 percent hydroxypropyl methylcellulose (Methocel) or with 0.2 ml of Methocel alone. The test compounds were administered at a 30 milligram/milliliter (mg/ml) concentration, which is a 600 milligram/kilogram (mg/kg) dosage. Mice were counted daily for 7-10 days post-challenge and deaths recorded. A modified Mantel-Haenzel combined chi-square (X^2) procedure was used to determine significant difference between virus control and treated groups. Chi-square values greater than 3.84 are considered significant (95 percent confidence level) in this test.

For `O=[N+]([O-])c1cccc(CN(Cc2cccc([N+](=O)[O-])c2)c2ccc(S(=O)(=O)O)cc2)c1` [Example 1, 4-(Bis((3-nitrophenyl)methyl)amino)benzenesulfonic Acid], the MCC in series [1] was determined as 25 µg/mL. The EC50 in series [2] was 6.25 µg/mL (≈ 14.1 µM); in series [3] it was over 100 µg/mL; in series [4], under 6.25 µg/mL.
With `O=S(=O)(O)c1ccc(N(Cc2c(Cl)cccc2Cl)Cc2c(Cl)cccc2Cl)cc1` [Example 2, 4-(Bis((2,6-dichlorophenyl)methyl)amino)benzenesulfonic Acid], in series [1], the MCC is 12.5 µg/mL. The values for the EC50 in series [2], in series [3] and in series [4] were 6.25 µg/mL (≈ 12.7 µM), 12.5 µg/mL (≈ 25.4 µM) and under 6.25 µg/mL, respectively.
Take `O=S(=O)(O)c1ccc(N(Cc2ccc(F)cc2)Cc2ccc(F)cc2)cc1` [Example 3, 4-(Bis((4-fluorophenyl)methyl)amino)benzenesulfonic Acid]: the MCC in series [1] is 100 µg/mL. The figures for the EC50 in series [2], in series [3] and in series [4] were 12.5 µg/mL (≈ 32.1 µM), over 100 µg/mL and under 6.25 µg/mL, respectively. Further, in series [5], the “Antiviral activity in testing with mice (in words)” value (from here on “Antiviral activity in testing”) is “active antiviral compounds in testing with mice”.
As for `O=S(=O)(O)c1ccc(N(Cc2ccc(F)cc2)Cc2ccc(Cl)cc2)cc1` [Example 4, 4-(((4-Chlorophenyl)methyl)((4-fluorophenyl)-methyl)amino)benzenesulfonic Acid], the MCC in series [1] came to 50 µg/mL. The EC50 is 50 µg/mL (≈ 123 µM) in series [2], over 100 µg/mL in series [3] and under 6.25 µg/mL in series [4]. Moreover, the “Antiviral activity in testing” value in series [5] is “active antiviral compounds in testing with mice”.
On to `O=S(=O)(O)c1ccc(N(Cc2ccc(Cl)cc2)Cc2ccc(Cl)cc2)cc1` [Example 5, 4-(Bis((4-chlorophenyl)methyl)amino)benzenesulfonic Acid], for which the MCC in series [1] was determined as 25 µg/mL. Moreover, the EC50 in series [2] is 12.5 µg/mL (≈ 29.6 µM); in series [3], over 100 µg/mL; in series [4], under 6.25 µg/mL. Also, in series [5], the “Antiviral activity in testing” value is listed as “active antiviral compounds in testing with mice”.
As for `O=S(=O)(O)c1ccc(N(Cc2cccc(Cl)c2)Cc2cccc(Cl)c2)cc1` [Example 6, 4-(Bis((3-chlorophenyl)methyl)amino)benzenesulfonic Acid], the MCC in series [1] came to 100 µg/mL. Also, the EC50 was over 50 µg/mL in series [2], over 100 µg/mL in series [3] and under 6.25 µg/mL in series [4]. Besides, in series [5], the “Antiviral activity in testing” value is “active antiviral compounds in testing with mice”.
Turning to `O=S(=O)(O)c1ccc(N(Cc2ccc(Br)cc2)Cc2ccc(Br)cc2)cc1` [Example 7, 4-(Bis((4-bromophenyl)methyl)amino)benzenesulfonic Acid], the MCC in series [1] stood at 25 µg/mL. For the same molecule, the EC50 in series [2] is 12.5 µg/mL (≈ 24.5 µM); in series [3] it was over 100 µg/mL; in series [4], under 6.25 µg/mL. For the same molecule, in series [5], the “Antiviral activity in testing” value is reported as “active antiviral compounds in testing with mice”.
For the molecule `O=S(=O)(O)c1ccc(N(Cc2ccccc2F)Cc2ccccc2F)cc1` [Example 8, 4-(Bis((2-fluorophenyl)methyl)amino)benzenesulfonic Acid], the MCC in series [1] came to 100 µg/mL. The EC50 in series [2] was over 100 µg/mL; in series [3] it was over 100 µg/mL; in series [4] it was under 6.25 µg/mL.
On to `O=S(=O)(O)c1ccc(N(Cc2cccc(F)c2)Cc2cccc(F)c2)cc1` [Example 9, 4-(Bis((3-fluorophenyl)methyl)amino)benzenesulfonic Acid], for which, in series [1], the MCC came out at 100 µg/mL. Besides, the results for the EC50 in series [2], in series [3] and in series [4] were 50 µg/mL (≈ 128 µM), over 100 µg/mL and 12.5 µg/mL (≈ 32.1 µM), respectively. In addition, the “Antiviral activity in testing” value in series [5] is “active antiviral compounds in testing with mice”.
